Assay results: patent US11492348B2, “Tri-substituted aryl and heteroaryl derivatives as modulators of PI3-kinase and autophagy pathways” (Neuropore Therapies, Inc., priority 2018, dated 2022)

Molecular target: PI3Kα (Homo sapiens (Human), UniProt P42336)
Test: Inhibition of PI3Kα (ADP-Glo kinase activity assay, ATP to ADP conversion)
Assay type: biochemical
Details: 25 μM PIP2:PS, 60 μM ATP, 30 min reaction, luminescence; for IC50: read-out: PI3Ka IC50
Description: Quantification of ATP to ADP conversion as a measure of PI3Kα activity. Active PI3Kα (Life Technologies), in the presence or absence of PI3Kα inhibitor, was reacted with PIP2:PS (Life Technologies), a substrate specifically optimized for use with Class I PI3 kinases, and ultrapure ATP (Promega). The conversion of ATP to ADP by PI3Kα was measured as luminescence signal via Promega ADP-Glo kinase activity assay. Assay was validated using published PI3Kα inhibitors LY294002, PI-103, BYL719, GDC0198 and also DMSO vehicle control.
Compounds were prepared at 100× final concentration as a 12-point, 1:3 serial-dilution in DMSO series, with DMSO control as 12th point. Compound was then diluted in (25 mM HEPES pH 7.5, 1 mM EGTA, 0.3% CHAPS) prior to addition to PI3Kα. Active PI3Kα diluted to 0.24 ng/μL (1.1 nM) in (50 mM HEPES pH 7.5, 6 mM MgCl2, 1 mM EGTA, 200 mM NaCl, 0.03% CHAPS, 8 mM DTT) was incubated with compound for 0 hr and 3 hr prior to the start of the reaction. 25 μM PIP2:PS and 60 μM ATP were diluted from stock in (25 mM HEPES pH 7.5, 1 mM EGTA, 0.3% CHAPS) and added to initiate the PI3Kα reaction. Reaction time was 30 minutes. ATP to ADP conversion was measured in Luminescence Counts on DTX880 Plate Reader (Beckman Coulter). Compound IC50s were reported using GraphPad Prism software. Analytical method was non-linear regression, 4-parameter curve fit with bottom fit to validated PI3Kα inhibitor reference controls and no top fit (floating top).

Chain of PI3Kα (P42336 whole entry): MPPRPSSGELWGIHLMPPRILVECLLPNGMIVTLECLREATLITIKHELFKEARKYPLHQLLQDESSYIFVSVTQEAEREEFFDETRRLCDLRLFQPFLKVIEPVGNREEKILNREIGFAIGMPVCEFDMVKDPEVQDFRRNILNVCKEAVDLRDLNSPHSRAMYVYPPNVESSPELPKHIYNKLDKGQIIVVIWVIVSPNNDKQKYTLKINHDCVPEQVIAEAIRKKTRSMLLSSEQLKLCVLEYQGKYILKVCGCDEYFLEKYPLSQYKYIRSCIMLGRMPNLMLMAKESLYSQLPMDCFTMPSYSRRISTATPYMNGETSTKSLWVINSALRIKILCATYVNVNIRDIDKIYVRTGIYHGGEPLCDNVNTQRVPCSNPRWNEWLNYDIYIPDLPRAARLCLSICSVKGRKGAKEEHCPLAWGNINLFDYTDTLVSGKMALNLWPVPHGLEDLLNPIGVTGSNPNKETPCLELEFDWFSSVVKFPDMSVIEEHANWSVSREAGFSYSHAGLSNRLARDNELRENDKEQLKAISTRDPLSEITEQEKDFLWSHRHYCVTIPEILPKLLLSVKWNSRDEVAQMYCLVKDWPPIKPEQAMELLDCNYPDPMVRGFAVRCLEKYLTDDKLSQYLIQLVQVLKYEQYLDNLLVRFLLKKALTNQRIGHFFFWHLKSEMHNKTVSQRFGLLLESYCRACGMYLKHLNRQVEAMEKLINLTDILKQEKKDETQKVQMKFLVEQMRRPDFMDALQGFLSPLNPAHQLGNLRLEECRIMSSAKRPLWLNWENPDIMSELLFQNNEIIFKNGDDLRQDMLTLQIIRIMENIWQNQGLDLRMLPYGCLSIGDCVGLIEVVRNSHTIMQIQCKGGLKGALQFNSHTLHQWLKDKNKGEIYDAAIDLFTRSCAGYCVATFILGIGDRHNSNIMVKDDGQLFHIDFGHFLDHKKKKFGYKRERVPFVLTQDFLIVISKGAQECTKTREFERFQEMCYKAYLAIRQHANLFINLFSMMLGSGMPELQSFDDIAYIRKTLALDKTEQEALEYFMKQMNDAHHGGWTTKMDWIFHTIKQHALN
Chain of PI3Kα (P27986 whole entry partner): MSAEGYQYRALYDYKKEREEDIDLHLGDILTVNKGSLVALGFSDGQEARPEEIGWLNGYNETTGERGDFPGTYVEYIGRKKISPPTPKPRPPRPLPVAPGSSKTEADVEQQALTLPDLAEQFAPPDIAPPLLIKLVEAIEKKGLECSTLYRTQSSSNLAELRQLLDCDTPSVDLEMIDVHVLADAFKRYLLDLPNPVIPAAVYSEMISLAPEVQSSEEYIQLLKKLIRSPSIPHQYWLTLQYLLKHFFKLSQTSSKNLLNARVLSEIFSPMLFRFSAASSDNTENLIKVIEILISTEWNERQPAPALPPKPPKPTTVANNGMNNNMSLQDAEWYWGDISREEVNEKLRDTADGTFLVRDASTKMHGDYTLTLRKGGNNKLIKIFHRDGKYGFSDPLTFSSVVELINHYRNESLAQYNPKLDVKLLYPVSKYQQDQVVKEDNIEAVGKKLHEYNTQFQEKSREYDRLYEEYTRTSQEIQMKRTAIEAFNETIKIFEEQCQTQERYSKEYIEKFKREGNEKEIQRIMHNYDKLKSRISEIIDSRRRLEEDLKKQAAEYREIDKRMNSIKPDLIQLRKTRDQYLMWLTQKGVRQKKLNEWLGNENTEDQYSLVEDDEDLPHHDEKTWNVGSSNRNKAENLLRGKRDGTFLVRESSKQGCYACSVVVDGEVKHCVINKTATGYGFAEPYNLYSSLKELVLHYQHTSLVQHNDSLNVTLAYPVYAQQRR

PI3Ka IC50 [nM] | IC50 [nM] | SMILES
390 | – | Nc1cc(C(F)(F)F)c(-c2cc(S(=O)(=O)c3ccccc3)cc(N3CCOCC3)n2)cn1 [Compound 144, 6-morpholino-4-(phenylsulfonyl)-4′-(trifluoromethyl)-[2,3′-bipyridin]-6′-amine]
1100 | – | Nc1ncc(-c2cc(N3CCOCC3)cc(S(=O)(=O)c3ccc(N4CCOCC4)cc3)c2)cn1 [Compound 36, 5-(3-morpholino-5-((4-morpholinophenyl)sulfonyl)phenyl)pyrimidin-2-amine]
5000 | – | COc1ncc(-c2cc(N3CCOCC3)cc(S(=O)(=O)c3ccccc3)c2)cn1 [Compound 2, 4-(3-(2-methoxypyrimidin-5-yl)-5-(phenylsulfonyl)phenyl)morpholine]
870 | – | CC(C)N1CC(S(=O)(=O)c2cc(-c3cnc(N)nc3)cc(N3CCOCC3)c2)C1 [Compound 65, 5-(3-((1-isopropylazetidin-3-yl)sulfonyl)-5-morpholinophenyl)pyrimidin-2-amine]
21000 | – | CC(C)(C)OC(=O)N1CCN(c2cc(-c3cnc(N)nc3)cc(S(=O)(=O)c3ccccc3)c2)CC1 [Compound 24, tert-butyl 4-(3-(2-aminopyrimidin-5-yl)-5-(phenylsulfonyl)phenyl)piperazine-1-carboxylate]
600 | – | CC(C)(O)CNc1ccc(CS(=O)(=O)c2cc(-c3cnc(N)nc3)cc(N3CCOCC3)c2)cc1 [Compound 84, 1-((4-(((3-(2-aminopyrimidin-5-yl)-5-morpholinophenyl)sulfonyl)methyl)phenyl)amino)-2-methylpropan-2-ol]
1500 | – | CNc1ncc(-c2cc(N3CCOCC3)cc(S(=O)(=O)c3ccccc3)c2)cn1 [Compound 16, N-methyl-5-(3-morpholino-5-(phenylsulfonyl)phenyl)pyrimidin-2-amine]
12000 | – | COc1ccc(-c2cc(N3CCOCC3)cc(S(=O)(=O)c3ccccc3)c2)cn1 [Compound 5, 4-(3-(6-methoxypyridin-3-yl)-5-(phenylsulfonyl)phenyl)morpholine]
30000 | – | Nc1ncc(-c2cc(N3CCCCC3)cc(S(=O)(=O)c3ccccc3)c2)cn1 [Compound 25, 5-(3-(phenylsulfonyl)-5-(piperidin-1-yl)phenyl)pyrimidin-2-amine]
3800 | – | Nc1cc(C(F)(F)F)c(-c2cc(N3CCOCC3)cc(S(=O)(=O)c3ccccc3)c2)cn1 [Compound 6, 5-(3-morpholino-5-(phenylsulfonyl)phenyl)-4-(trifluoromethyl)pyridin-2-amine]
1800 | – | Nc1ncc(-c2cc(N3CCOCC3)cc(S(=O)(=O)c3cccc(C(F)(F)F)c3)c2)cn1 [Compound 7, 5-(3-morpholino-5-((3-(trifluoromethyl)phenyl)sulfonyl)phenyl) pyrimidin-2-amine]
660 | – | Nc1ncc(-c2cc(N3CCOCC3)cc(S(=O)(=O)C3CN(Cc4ccc(F)cc4)C3)c2)cn1 [Compound 80, 5-(3-((1-(4-fluorobenzyl)azetidin-3-yl)sulfonyl)-5-morpholinophenyl)pyrimidin-2-amine]
11000 | – | CN(C)c1ncc(-c2cc(N3CCOCC3)cc(S(=O)(=O)c3ccccc3)c2)cn1 [Compound 4, N,N-dimethyl-5-(3-morpholino-5-(phenylsulfonyl)phenyl)pyrimidin-2-amine]
1100 | – | Nc1ncc(-c2cc(N3CCOCC3)cc(S(=O)(=O)CC3CCC(F)(F)CC3)c2)cn1 [Compound 64, 5-(3-(((4,4-difluorocyclohexyl)methyl)sulfonyl)-5-C21H26F2N4O3Smorpholinophenyl) pyrimidin-2-amine]

Second part, the molecule before the results:

SMILES | PI3Ka IC50 [nM] | IC50 [nM]
Nc1ccc(-c2cc(N3CCOCC3)cc(S(=O)(=O)Cc3ccc(F)cc3F)c2)nc1 [Compound 98, -(3-((2,4-difluorobenzyl)sulfonyl)-5-morpholinophenyl)pyridin-3-amine] | 12000 | –
Nc1ncc(-c2cc(S(=O)(=O)[C@H]3CCOC3)cc(N3CCOCC3)n2)cn1 [Compound 142a, (S)-5-(6-morpholino-4-((tetrahydrofuran-3-yl)sulfonyl)pyridin-2-yl)pyrimidin-2-amine] | 5.7 | –
Nc1ncc(-c2cc(C(=O)C3CCOC3)cc(N3CCOCC3)n2)cn1 (stereo not shown) [Compound 149, (2-(2-aminopyrimidin-5-yl)-6-morpholinopyridin-4-yl)(tetrahydrofuran-3-yl)methanone] | 14 | –
C[C@@H]1CC(S(=O)(=O)c2cc(-c3cnc(N)nc3)cc(N3CCOCC3)c2)C[C@H](C)O1 (stereo partly drawn) [Compound 85, 5-(3-(((2R,6S)-2,6-dimethyltetrahydro-2H-pyran-4-yl)sulfonyl)-5-morpholinophenyl)pyrimidin-2-amine] | 1000 | –
Nc1ncc(-c2cc(S(=O)(=O)C3CCOc4ccccc43)cc(N3CCOCC3)n2)cn1 (single isomer, unassigned; (+)) [(+) 143, 5-(4-(chroman-4-ylsulfonyl)-6-morpholinopyridin-2-yl)pyrimidin-2-amine] | – | 4.5
Nc1ncc(-c2cc(S(=O)(=O)C3CCOc4ccccc43)cc(N3CCOCC3)n2)cn1 (racemic) [Compound 143, 5-(4-(chroman-4-ylsulfonyl)-6-morpholinopyridin-2-yl)pyrimidin-2-amine] | 1.7 | –
Nc1ncc(-c2cc(C3CCOc4ccccc43)cc(N3CCOCC3)n2)cn1 (stereo not shown) [Compound 141, 5-(4-(chroman-4-yl)-6-morpholinopyridin-2-yl)pyrimidin-2-amine] | 62 | –
CCNC(=O)Nc1ccc(-c2cc(N3CCOCC3)cc(S(=O)(=O)Cc3ccc(F)cc3)c2)cc1OC [Compound 40, 1-ethyl-3-(3′-((4-fluorobenzyl)sulfonyl)-3-methoxy-5′-morpholino-[1,1′-biphenyl]-4-yl)urea] | 6500 | –
Nc1cnc(-c2cc(N3CCOCC3)cc(S(=O)(=O)Cc3ccccc3)c2)cn1 [Compound 73, 5-(3-(benzylsulfonyl)-5-morpholinophenyl)pyrazin-2-amine] | 1500 | –
COc1nc(N)ccc1-c1cc(N2CCOCC2)cc(S(=O)(=O)Cc2ccc(F)cc2)c1 [Compound 44, 5-(3-((4-fluorobenzyl)sulfonyl)-5-morpholinophenyl)-6-methoxypyridin-2-amine] | 13000 | –
O=C1COc2cc(-c3cc(N4CCOCC4)cc(S(=O)(=O)Cc4ccc(F)cc4)c3)ccc2N1 [Compound 42, 7-(3-((4-fluorobenzyl)sulfonyl)-5-morpholinophenyl)-2H-benzo[b][1,4]oxazin-3(4H)-one] | 4700 | –
Cc1nc(N)ncc1-c1cc(N2CCOCC2)cc(S(=O)(=O)[C@@H]2CCOC2)c1 [Compound 121, (R)-4-methyl-5-(3-morpholino-5-((tetrahydrofuran-3-yl)sulfonyl)phenyl)pyrimidin-2-amine] | 840 | –
CC(C)N1CCC(S(=O)(=O)c2cc(-c3cnc(N)nc3)cc(N3CCOCC3)c2)CC1 [Compound 90, 5-(3-((1-isopropylpiperidin-4-yl)sulfonyl)-5-morpholinophenyl)pyrimidin-2-amine] | 7220 | –
CC(=O)Nc1ncc(-c2cc(S(=O)(=O)c3ccccc3)cc(N3CCOCC3)n2)cn1 [Compound 145, N-(5-(6-morpholino-4-(phenylsulfonyl)pyridin-2-yl)pyrimidin-2-yl)acetamide] | 390 | –
O=S(=O)(Cc1ccccc1)c1cc(-c2cnc(NC3CC3)nc2)cc(N2CCOCC2)c1 [Compound 104, 5-(3-(benzylsulfonyl)-5-morpholinophenyl)-N-cyclopropylpyrimidin-2-amine] | 1300 | –
Nc1ncc(-c2cc(S(=O)(=O)C3COc4ccccc43)cc(N3CCOCC3)n2)cn1 (stereo not shown) [Compound 147, 5-(4-((2,3-dihydrobenzofuran-3-yl)sulfonyl)-6-morpholinopyridin-2-yl)pyrimidin-2-amine] | 7 | –
Nc1ncc(-c2cc(S(=O)(=O)C3CCOc4ccccc43)cc(N3CCOCC3)n2)cn1 (single isomer, unassigned; (-)) [(−) 143, 5-(4-(chroman-4-ylsulfonyl)-6-morpholinopyridin-2-yl)pyrimidin-2-amine] | – | 1
Nc1ccc(-c2cc(N3CCOCC3)cc(S(=O)(=O)[C@@H]3CCOC3)c2)c(C(F)(F)F)n1 [Compound 105, (R)-5-(3-morpholino-5-((tetrahydrofuran-3-yl)sulfonyl)phenyl)-6-(trifluoromethyl)pyridin-2-amine] | 1700 | –
Nc1ncc(-c2cc(N3CCOCC3)cc(S(=O)(=O)C3CN(C4CCOCC4)C3)c2)cn1 [Compound 66, 5-(3-morpholino-5-((1-(tetrahydro-2H-pyran-4-yl)azetidin-3-yl)sulfonyl)phenyl)pyrimidin-2-amine] | 1300 | –
CC(C)(C)OC(=O)N1CC(S(=O)(=O)c2cc(-c3cnc(N)cn3)cc(N3CCOCC3)c2)C1 [Compound 69, tert-butyl 3-((3-(5-aminopyrazin-2-yl)-5-morpholinophenyl)sulfonyl)azetidine-1-carboxylate] | 540 | –
